Assay results published in US20100041632A1, “USES OF THE CARBOXY-AMIDO-TRIAZOLE COMPOUNDS AND SALTS THEREOF” (priority 2006, published 2010).

How the values were obtained:
[1] = tested on: Kunming mice; assay: Effect of CAI on drug addiction caused by morphine (naloxone-induced jumping); settings: mouse, in vivo
Description: 160 Kunming mice (18-22 g, half male and half female) were divided into 4 groups randomly, with 40 mice per group:
Control group with solvent, PEG400/N.S. (10 μl/g/day PEG400, (ig), 4 days);
Group treated with CAI, CAI/N.S. (CAI is resolved in PEG400 to reach a final concentration of […], 20 mg CAI/kg/day was administered (ig) for 4 days, N.S. was taken according to morphine administration in table 1);
Group treated with morphine, PEG400/morphine (10 μl/g/day PEG400 was administered (ig) for 4 days, morphine was administered according to the table below);
4 hours after the morphine administration on the fifth day, animals of each group was injected (ip) with 1 mg/kg naloxone and then put into a tank (5000 ml) immediately. The jump frequency in 30 minutes was recorded. Two-factor analysis of variance by SPSS was performed to analyse the experiment results.

[2] = tested on: Wistar rats; assay: Adjuvant induced arthritis (AA) of rat, paw oedema; assay type: in vivo
Description: Negative control (AA+NS): […] positive control (AA+Dex): dexamethasone, i.p., 0.067 mg/kg/day. Vehicle control (AA+PEG400): […] CAI (AA+CAI): 20 mg/ml CAI, ig, 0.1 ml/100 g/day (20 mg/kg/day). Combination (AA+CAI+Dex): dexamethasone, 0.067 mg/kg/day (i.p.) plus CAI 20 mg/kg/day (p.o.). Normal volumes of left and right hind paw were measured before adjuvant injection. […]

[3] = tested on: Kunming mice; assay: Hot plate test (analgesic effect); assay type: in vivo
Description: Kunming mice (18-22 g, female) were randomly divided into 4 groups with 20 animals per group.
(§1) Control group with dissolvent: 10 μl PEG400 was administered (ig) twice with the interval of 24 hours. The pain intensity test was carried out 8 hours after the second administration. 200 μl N.S. was injected (sc) 5 minutes before the test.
(§2) Morphine/PEG400 group: 10 μl PEG400 was administered (ig) twice with the interval of 24 hours. The pain intensity test was carried out 8 hours after the second administration. Morphine (2 mg/kg body weight) was injected (sc) 5 minutes before the test.
(§3) CAI/N.S. group: CAI (20 mg/kg body weight, 2 mg/ml) was administered (ig) twice with the interval of 24 hours. The pain intensity test was carried out 8 hours after the second administration. 200 μl N.S. was injected (sc) 5 minutes before the test.
The pain intensity test was carried out 8 hours after the second administration. Morphine (2 mg/kg body weight) was injected (sc) 5 minutes before the test.
The mice were placed onto a hot plate (53±0.5° C.) and the latency periods (second) of hopping responses were recorded as the pain threshold index.

[4] = tested on: TNF-α; assay: TNF-α levels in paw tissue and serum of adjuvant arthritis rat (ELISA); assay type: in vivo; settings: AA rats, day 29, ELISA
Description: Blood was collected from eve socket on day 29 and left in room temperature to allow coagulating. Then serum was separated by centrifugation at 3000 rpm for 10 min and kept in −20° C. After animals were sacrificed, the subcutaneous tissue of the right hind paw and that surrounding the tarsotibial joints was removed, broke into pieces, and placed in 5 ml normal saline (0.9%). The tissues were homogenized in a high speed homogenizer. Then the homogenate was centrifuged at 4° C. and 10,000 rpm for 15 min. The supernatants were collected and stored at −20° C. until further analysis.
IL-1β and TNF-α levels in paw tissue and serum were measured using specific rat ELISA kits according to the manufacturer's instructions.

[5] = tested on: Kunming mice; assay: Mouse writhing test (acetic acid); assay type: in vivo; settings: 20 mg/kg ig for 4 days
Description: Kunming mice (18-22 g, male) were randomly divided into several groups with 20 animals in each group.
Control group: PEG400 was administered (ig) for 4 days, 0.1 ml/10 g body weight.
Test groups: CAI and its analogues (compounds with structural formula of A, R1═Cl or H, R2═Cl, H, Br, CH3 or CF3, R3═Cl, Br, CF3, NO2 or CN, X═O, S or C═O; The compounds are listed in Table 6 (A1˜A10)) were administered (ig) for 4 days (20 mg/kg body weight, 2 mg/ml).
The pain intensity test was carried out 8 hours after the last drug administration. 0.6% acetic acid (0.1 ml/10 g body weight) was injected (ip). The animals were put into a glass cylinder immediately. The writhing frequency in the following 5-15 minutes was recorded.

[6] = tested on: Kunming mice; assay: Radiant heat test (tail-flick); assay type: in vivo
Description: The radiant heat dolorimeter (Collumbus Instruments) is used in this model with the tail-flick mode and the exposure rate of 20. The latency periods (TFL) starting from the beginning of exposure to the tail-flick responses were recorded as the pain threshold. The exposure time lasted for 16 seconds.
Kunming mice (18-22 g, male) are tested for the basic pain threshold before the test with drug administration, and those with pain threshold longer than 16 seconds are excluded. The selected mice are divided into 4 groups with 15 animals per group.
as §1, §2, §3
The pain intensity test was carried out 8 hours after the second administration, morphine (2 mg/kg body weight) was injected (sc) 5 minutes before the test.
The pain threshold of each mouse was tested before and after morphine or N.S. injection. The values after drug administration minus those before drug administration were considered to be the changing index of pain threshold.

SMILES: NC(=O)c1nnn(Cc2cc(Cl)c(C(=O)c3ccc(Cl)cc3)c(Cl)c2)c1N [CAI, 5-amino-1-[3,5-dichloro-4-(4-chlorobenzoyl chloride)benzyl]-1H-1,2,3-triazole-4-carboxamide]
- Addiction / withdrawal syndrome (in words) [1]: does not cause addiction
- Primary paw oedema (%), mean ± std ([2]; 1 d, CAI 20 mg/kg/day ig, Dex 0.067 mg/kg/day i.p.): 116.2 ± 17.6 %
- Primary paw oedema (%), mean ± std ([2]; 2 d): 131.9 ± 23.0 %
- Primary paw oedema (%), mean ± std ([2]; 5 d): 122.4 ± 12.4 %
- Primary paw oedema (%), mean ± std ([2]; 8 d): 121.6 ± 21.6 %
- Primary paw oedema (%), mean ± std ([2]; 11 d): 129.3 ± 23.5 %
- Primary paw oedema (%), mean ± std ([2]; 14 d): 112.0 ± 15.7 %
- Secondary paw oedema (%), mean ± std ([2]; 14 d, right hind paw): 2.3 ± 1.0 %
- Primary paw oedema (%), mean ± std ([2]; 17 d): 104.3 ± 20.7 %
- Secondary paw oedema (%), mean ± std ([2]; 17 d): 3.1 ± 0.8%
- Primary paw oedema (%), mean ± std ([2]; 20 d): 92.2 ± 16.0 %
- Secondary paw oedema (%), mean ± std ([2]; 20 d): 8.8 ± 3.2 %
- Primary paw oedema (%), mean ± std ([2]; 23 d): 92.4 ± 15.4 %
- Secondary paw oedema (%), mean ± std ([2]; 23 d): 8.6 ± 2.3 %
- Primary paw oedema (%), mean ± std ([2]; 26 d): 88.6 ± 13.4 %
- Secondary paw oedema (%), mean ± std ([2]; 26 d): 8.6 ± 1.9 %
- Primary paw oedema (%), mean ± std ([2]; 29 d): 86.9 ± 23.1 %
- Secondary paw oedema (%), mean ± std ([2]; 29 d): 6.5 ± 2.7 %
- Effect on paw oedema of AA rats (in words) ([2]; compared with control group, two-way ANOVA): inhibits primary and secondary paw oedema
- Pain threshold (sec, mean ± std) ([3]; hot plate 53±0.5° C., latency of hopping response, CAI 20 mg/kg ig twice, morphine 2 mg/kg sc): 19.9 ± 6.2 s
- Analgesic effect in hot plate test (in words) ([3]; two-factor ANOVA): neither have obvious analgesic effect alone
- TNF-α levels in paw tissue and serum (in words) [4]: significantly reduced
- Analgesic effect in writhing test (in words) [5]: obvious analgesic effect
- Writhing frequency mean ± std ([5]; 0.6% acetic acid ip, writhing in following 5-15 minutes): 8.1 ± 2.3
- Analgesic effect in radiant heat test (in words) ([6]; compared with the control group): neither have obvious analgesic effect alone
- Pain threshold change (seconds, mean ± std) ([6]; tail-flick latency after minus before drug, CAI 20 mg/kg ig twice, morphine 2 mg/kg sc): 2.56 ± 2.62 s
